The results in this text go back to US7468388B2, “Dimeric compounds and their use as anti-viral agents” (priority 2001, dated 2008).

Molecules are shown by their SMILES. Converted amounts (≈) assume the structure as drawn.

Experiment [1] relates to Influenza A/Sydney/5/97. In words: Cytopathic effect (CPE) assay in MDCK cells, MTT readout. The class given is cell-based. The following applies: concentration that inhibited CPE by 50%, up to 72 hours.
Experiment [2] has as its system A/Panama/2007/99 BVLV008 (H3N2). In words: Plaque reduction assay (PRA) in MDCK cells. The class given is cell-based. Particulars: reduces plaque numbers by 50%.
The subject of experiment [3] is A/New Caledonia/20/99 BVLV008 (H1N1). The experiment in a line: Plaque reduction assay (PRA) in MDCK cells. The following applies: reduces plaque numbers by 50%. The class given is cell-based.
The subject of experiment [4] is B/Harbin/7/95 BVLV008. In words: Plaque reduction assay (PRA) in MDCK cells. The class given is cell-based. The following applies: Influenza B virus, read-out: EC50 PRA B/Harb*.
In experiment [5] the test system is A/W SN/33 BVLV09 (H1N1). In words: Plaque reduction assay (PRA) in MDCK cells. The class given is cell-based, influenza A (H1N1). The following applies: reduces plaque numbers by 50%.
Experiment [6] deals with B/Yamaneshl/166/98 BVLV007. The experiment in a line: Plaque reduction assay (PRA) in MDCK cells. In kind it is cell-based. The following applies: Influenza B virus, read-out: EC50 PRA B/Yam*, reduces plaque numbers by 50%, MDCK cells.

As for `CC(=O)N[C@@H]1C(N=C(N)N)C=C(C(=O)O)O[C@H]1[C@H](O)[C@H](O)CO` (single isomer, unassigned) [Compound A, 4-guanidino-2-deoxy-2,3-dehydro-N-acetylneuraminic acid], the “ID50 A/Sydney/5/97+” value in experiment [1] was 0.023 ± 0.024 µg/mL (≈ 0.0692 µM). In addition, the “EC50 PRA A/Pan*” value in experiment [2] came to 0.003 µg/mL (≈ 0.00903 µM). Moreover, the “EC50 PRA A/New*” value in experiment [3] is 0.00023 µg/mL (≈ 0.000692 µM). Further, the EC50 in experiment [4] amounted to 0.00019 µg/mL (≈ 0.000572 µM). Besides, the “EC50 PRA A/W SN*” value in experiment [5] was above 0.1 µg/mL.
Regarding `NC12CC3CC(CC(C3)C1)C2` [Amantadine], the EC50 in experiment [6] amounted to 2.08 µg/mL (≈ 13.8 µM).
